Data from patent publication US20250340574A1, “MODULATORS OF CYSTIC FIBROSIS TRANSMEMBRANE CONDUCTANCE REGULATOR” (Vertex Pharmaceuticals Incorporated, priority 2022, published 2025).
Read-outs that look alike come from different tables or passages of the source.

Experiments:
[1] = molecular target: T1, CFTR (F508del/MF-HBE cells) (Homo sapiens, UniProt P13569, DEL508-508); experiment: Ussing chamber assay of CFTR-mediated short-circuit currents, Assay C (0.026 μM to 25 μM, 6 concentrations); format: cell-based; conditions: with 33 nM potentiator and 18 μM Tezacaftor, 20% human serum; for Emax: read-out: C Max activity (%)
T1 construct: human bronchial epithelial (HBE) cells derived from CF subjects heterozygous for F508del and a minimal function CFTR mutation (F508del/MF-HBE); endogenous in cells; host or cells: Primary human bronchial epithelial cells from CF subjects (F508del/MF genotype), differentiated at an air-liquid interface
Outline: (§1)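 Short-circuit current was recorded at 37 °C under voltage clamp (0 mV) with amiloride 30 μM apically, forskolin 20 μM activation, then BPO/GlyH-101/inh-172 (20 μM each) to isolate CFTR current. Before recording, corrector exposure lasted 18–24 h with 18 μM tezacaftor, 20% human serum, and 33 nM (dose–response) or 44 nM (1 μM fixed) potentiator, maintained throughout.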

[2] = molecular target: T1, CFTR (F508del/MF-HBE cells); experiment: Ussing chamber assay of CFTR-mediated short-circuit currents, Assay D (single concentration of 1 μM); format: cell-based; conditions: with 44 nM potentiator and 18 μM Tezacaftor, 20% human serum; for D activity at 1 μM (%): 18-24 hours
Outline: as §1

T1 sequence (P13569 with tags, fused parts or gaps DEL508-508): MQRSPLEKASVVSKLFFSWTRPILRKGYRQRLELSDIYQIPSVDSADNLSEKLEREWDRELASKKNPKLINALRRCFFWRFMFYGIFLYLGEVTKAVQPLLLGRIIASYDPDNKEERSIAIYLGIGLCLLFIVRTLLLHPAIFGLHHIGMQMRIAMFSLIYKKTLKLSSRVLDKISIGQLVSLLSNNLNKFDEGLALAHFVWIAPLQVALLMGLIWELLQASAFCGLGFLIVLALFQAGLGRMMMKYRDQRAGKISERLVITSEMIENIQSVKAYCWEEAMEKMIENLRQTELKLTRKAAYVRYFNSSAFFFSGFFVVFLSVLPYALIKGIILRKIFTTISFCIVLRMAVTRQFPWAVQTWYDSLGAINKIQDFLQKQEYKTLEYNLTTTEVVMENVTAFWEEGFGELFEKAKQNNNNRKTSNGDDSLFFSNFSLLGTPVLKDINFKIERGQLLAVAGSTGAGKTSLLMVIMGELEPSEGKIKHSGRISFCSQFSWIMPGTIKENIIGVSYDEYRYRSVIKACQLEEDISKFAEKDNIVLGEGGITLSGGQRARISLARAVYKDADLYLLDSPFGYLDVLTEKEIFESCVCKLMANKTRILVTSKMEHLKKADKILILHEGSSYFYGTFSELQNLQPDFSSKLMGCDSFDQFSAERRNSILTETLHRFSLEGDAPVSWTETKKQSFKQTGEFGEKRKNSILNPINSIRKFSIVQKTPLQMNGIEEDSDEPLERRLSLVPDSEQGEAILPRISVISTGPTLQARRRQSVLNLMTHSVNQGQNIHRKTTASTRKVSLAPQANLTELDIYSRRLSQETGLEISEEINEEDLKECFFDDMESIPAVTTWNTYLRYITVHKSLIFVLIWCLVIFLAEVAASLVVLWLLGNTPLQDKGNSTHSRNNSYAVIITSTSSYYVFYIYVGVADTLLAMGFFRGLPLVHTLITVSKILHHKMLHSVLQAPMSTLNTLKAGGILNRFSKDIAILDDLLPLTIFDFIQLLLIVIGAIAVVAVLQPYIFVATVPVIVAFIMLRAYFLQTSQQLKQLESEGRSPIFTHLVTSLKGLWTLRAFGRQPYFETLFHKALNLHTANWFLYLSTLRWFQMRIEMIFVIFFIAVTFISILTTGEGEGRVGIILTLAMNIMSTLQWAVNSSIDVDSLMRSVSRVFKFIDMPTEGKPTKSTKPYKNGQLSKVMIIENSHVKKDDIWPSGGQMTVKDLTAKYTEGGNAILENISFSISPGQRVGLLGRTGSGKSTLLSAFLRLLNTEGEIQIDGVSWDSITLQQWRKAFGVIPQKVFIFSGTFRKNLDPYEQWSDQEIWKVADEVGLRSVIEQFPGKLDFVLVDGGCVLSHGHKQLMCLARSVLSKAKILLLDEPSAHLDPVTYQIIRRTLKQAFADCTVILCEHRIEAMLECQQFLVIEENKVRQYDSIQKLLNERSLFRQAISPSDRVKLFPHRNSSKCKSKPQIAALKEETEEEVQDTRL

Compound | EC50 [1] [nM] | Emax [1] [%] | D act. at 1 μM (%) [2] | Emax ([1]; 18-24 hours) [%] | D activity at 1 μM (%) [2]
Cc1cccc(C)c1-c1cc2nc(n1)NS(=O)(=O)c1cccc(c1)C(=O)N(Cc1cnc3oc(C4(C)CC4)cc3n1)[C@@H](C(C(C)C)C(C)C)CO2 (stereo in doubt) [IV-31] | < 1000 | > 60 | +++ (+++ is >60%) | – | –
Cc1cccc(C)c1-c1cc2nc(n1)NS(=O)(=O)c1cccc(c1)C(=O)N(Cc1cnc3oc(C)c(C4CC4)c3n1)[C@H](CC13CC(C1)C3)CO2 [Compound I-86] | 1000 to 3000 | – | – | > 60 | +++ (+++ is >60%)
Cc1cccc(C)c1-c1nc2nc(c1C)OC[C@@H](CC(C)(C)C)N(Cc1cnc3oc(C(C)C)cc3n1)C(=O)c1cccc(c1)S(=O)(=O)N2 [Compound I-110] | 1000 to 3000 | – | – | > 60 | +++ (+++ is >60%)
Cc1cccc(C)c1-c1cc2nc(n1)NS(=O)(=O)c1cccc(c1)C(=O)N(Cc1cnc3oc(C(C)(C)CO)cc3n1)[C@H](CC13CC(C1)C3)CO2 [Compound I-113, (11R)-11-(1-bicyclo[1.1.1]pentanylmethyl)-6-(2,6-dimethylphenyl)-12-[[6-(2-hydroxy-1,1-dimethyl-ethyl)furo[2,3-b]pyrazin-2-yl]methyl]-2,2-dioxo-9-oxa-2λ^6-thia-3,5,12,19-tetrazatricyclo[12.3.1.14,8]nonadeca-1(18),4(19),5,7,14,16-hexaen-13-one] | 3000 to 30000 | – | – | > 60 | +++ (+++ is >60%)
COc1c2nc(nc1-c1c(C)cccc1C)NS(=O)(=O)c1cccc(c1)C(=O)N(Cc1cnc3cc(C(C)C)n(C)c3n1)[C@H](CC(C)(C)C)CC2 [Compound I-158] | 1000 to 3000 | – | – | > 60 | +++ (+++ is >60%)
Cc1cccc(C)c1-c1nc2nc(c1C)OC[C@@H](CC(C)(C)C)N(Cc1cnc3cc(C(C)C)n(C)c3n1)C(=O)c1cccc(c1)S(=O)(=O)N2 [Compound I-168] | < 1000 | – | – | > 60 | +++ (+++ is >60%)
Cc1cccc(C)c1-c1cc2nc(n1)NS(=O)(=O)c1cccc(c1)C(=O)N(Cc1cnc3cc(C(C)(C)C)n(C)c3n1)[C@H](COC(C)C)CO2 [Compound I-185] | < 1000 | – | – | > 60 | +++ (+++ is >60%)
Cc1cccc(C)c1-c1nc2nc(c1C)OC[C@@H](C[C@H]1CCCCO1)N(Cc1cnc3cc(C4CC4)n(C)c3n1)C(=O)c1cccc(c1)S(=O)(=O)N2 [Compound I-193] | < 1000 | – | – | > 60 | +++ (+++ is >60%)
Cc1cccc(C)c1-c1nc2nc(c1C)OC[C@@H](C[C@H]1CCCCO1)N(Cc1cnc3cc(C(C)C)n(C)c3n1)C(=O)c1cccc(c1)S(=O)(=O)N2 [Compound I-194] | < 1000 | – | – | > 60 | +++ (+++ is >60%)
Cc1cccc(C)c1-c1cc2nc(n1)NS(=O)(=O)c1cccc(c1)C(=O)N(Cc1cnc3oc(C(C)(C)C)cc3n1)[C@H](CC(C)(C)C)CO2 [Compound I-218] | < 1000 | – | – | > 60 | +++ (+++ is >60%)
Cc1cccc(C)c1-c1nc2nc(c1C)OC[C@@H](CC1(C)CC1)N(Cc1cnc3cc(C(C)(C)C)n(C)c3n1)C(=O)c1cccc(c1)S(=O)(=O)N2 [Compound I-222] | < 1000 | – | – | > 60 | +++ (+++ is >60%)
Cc1cccc(C)c1-c1nc2nc(c1C)OC[C@@H](CC13CC(C1)C3)N(Cc1cnc3cc(C4(C)CC4)n(C)c3n1)C(=O)c1cccc(c1)S(=O)(=O)N2 [Compound I-228] | < 1000 | – | – | > 60 | +++ (+++ is >60%)
Cc1cccc(C)c1-c1nc2nc(c1C)OC[C@@H](CC13CC(C1)C3)N(Cc1cnc3oc(C4(C)CC4)cc3n1)C(=O)c1cccc(c1)S(=O)(=O)N2 [Compound I-231] | < 1000 | – | – | > 60 | +++ (+++ is >60%)
Cc1cccc(C)c1-c1cc2nc(n1)NS(=O)(=O)c1cccc(c1)C(=O)N(Cc1cnc3cc(C(C)(C)C)n(C)c3n1)[C@H](CC(C)(C)C)CO2 [Compound I-239] | < 1000 | – | – | > 60 | +++ (+++ is >60%)
Cc1cccc(C)c1-c1cc2nc(n1)NS(=O)(=O)c1cccc(c1)C(=O)N(Cc1cnc3cc(C4(C)CC4)n(C)c3n1)[C@H](COC(C)C)CO2 [Compound I-240] | < 1000 | – | – | > 60 | +++ (+++ is >60%)
Cc1cccc(C)c1-c1cc2nc(n1)NS(=O)(=O)c1cccc(c1)C(=O)N(Cc1ncc3cc(C4CC4)n(C)c3n1)[C@H](CC1(C)CC1)CO2 [Compound I-263] | 1000 to 3000 | – | – | > 60 | +++ (+++ is >60%)
Cc1cccc(C)c1-c1cc2nc(n1)NS(=O)(=O)c1cccc(c1)C(=O)N(Cc1ncc3cc(C4CC4)n(C)c3n1)[C@H](CC13CC(C1)C3)CO2 [Compound I-264] | 1000 to 3000 | – | – | > 60 | +++ (+++ is >60%)

Compound | EC50 [1] [nM] | Emax [1] [%] | D act. at 1 μM (%) [2] | Emax ([1]; 18-24 hours) [%] | D activity at 1 μM (%) [2]
Cc1cccc(C)c1-c1nc2nc(c1C)OC[C@@H](CC(C)(C)C)N(Cc1ncc3cc(C4CC4)n(C)c3n1)C(=O)c1cccc(c1)S(=O)(=O)N2 [Compound I-265] | 1000 to 3000 | – | – | > 60 | +++ (+++ is >60%)
Cc1cccc(C)c1-c1nc2nc(c1C)OC[C@@H](COC(C)C)N(Cc1cnc3cc(C4(C)CC4)n(C)c3n1)C(=O)c1cccc(c1)S(=O)(=O)N2 [IV-2] | < 1000 | > 60 | +++ (+++ is >60%) | – | –
Cc1cccc(C)c1-c1cc2nc(n1)NS(=O)(=O)c1cccc(c1)C(=O)N(Cc1cnc3oc(C(C)(C)C)cc3n1)[C@H](CC1(C)CCC1)CO2 [IV-5] | 1000 to 3000 | > 60 | +++ (+++ is >60%) | – | –
COc1c2nc(nc1-c1c(C)cccc1C)NS(=O)(=O)c1cccc(c1)C(=O)N(Cc1cnc3cc(C4(C)CC4)n(C)c3n1)[C@H](COC(C)C)CO2 [IV-11] | < 1000 | > 60 | +++ (+++ is >60%) | – | –
COc1c2nc(nc1-c1c(C)cccc1C)NS(=O)(=O)c1cccc(c1)C(=O)N(Cc1cnc3oc(C(C)(C)C)cc3n1)[C@H](CC1(C)CC1)CO2 [IV-12] | 1000 to 3000 | > 60 | +++ (+++ is >60%) | – | –
Cc1cccc(C)c1-c1cc2nc(n1)NS(=O)(=O)c1cccc(c1)C(=O)N(Cc1cnc3oc(COC(C)C)cc3n1)[C@H](CC1(C)CC1)CO2 [IV-18] | 1000 to 3000 | > 60 | +++ (+++ is >60%) | – | –
Cc1cccc(C)c1-c1cc2nc(n1)NS(=O)(=O)c1cccc(c1)C(=O)N(Cc1cnc3oc(CC(C)C)cc3n1)[C@H](CC1(C)CC1)CO2 [IV-24, (11R)-6-(2,6-dimethylphenyl)-12-[(6-isobutylfuro[2,3-b]pyrazin-2-yl)methyl]-11-[(1-methylcyclopropyl)methyl]-2,2-dioxo-9-oxa-2λ^6-thia-3,5,12,19-tetrazatricyclo[12.3.1.14,8]nonadeca-1(18),4(19),5,7,14,16-hexaen-13-one] | 3000 to 30000 | > 60 | +++ (+++ is >60%) | – | –
Cc1cccc(C)c1-c1cc2nc(n1)NS(=O)(=O)c1cccc(c1)C(=O)N(Cc1cnc3oc(C4CCOCC4)cc3n1)[C@H](CC1(C)CC1)CO2 [IV-27] | 3000 to 30000 | > 60 | +++ (+++ is >60%) | – | –
Cc1cccc(C)c1-c1cc2nc(n1)NS(=O)(=O)c1cccc(c1)C(=O)N(Cc1cnc3oc(-c4ccnn4C)cc3n1)[C@H](CC1(C)CC1)CO2 [IV-30] | 3000 to 30000 | > 60 | +++ (+++ is >60%) | – | –
Cc1cccc(C)c1-c1cc2nc(n1)NS(=O)(=O)c1cccc(c1)C(=O)N(Cc1cnc3cc(C(C)(C)C)n(C)c3n1)[C@@H](C(C(C)C)C(C)C)CO2 [IV-32] | < 1000 | > 60 | +++ (+++ is >60%) | – | –
Cc1cccc(C)c1-c1cc2nc(n1)NS(=O)(=O)c1cccc(c1)C(=O)N(Cc1cnc3oc(C(C)(C)C)cc3n1)[C@@H](C(C1CCC1)C1CCC1)CO2 [IV-33] | 3000 to 30000 | > 60 | +++ (+++ is >60%) | – | –
CCC(C)(C)C[C@H]1COc2cc(-c3c(C)cccc3C)nc(n2)NS(=O)(=O)c2cccc(c2)C(=O)N1Cc1cnc2oc(C3CC3)cc2n1 [IV-34] | 1000 to 3000 | > 60 | +++ (+++ is >60%) | – | –
Cc1cccc(C)c1-c1cc2nc(n1)NS(=O)(=O)c1cccc(c1)C(=O)N(Cc1cnc3oc(C(C)(C)C)cc3n1)[C@@H](C(C(C)C)C(C)C)CO2 [IV-36] | < 1000 | > 60 | +++ (+++ is >60%) | – | –
CCC(C)(C)C[C@H]1COc2cc(-c3c(C)cccc3C)nc(n2)NS(=O)(=O)c2cccc(c2)C(=O)N1Cc1cnc2oc(C(C)(C)C)cc2n1 [IV-37] | 1000 to 3000 | > 60 | +++ (+++ is >60%) | – | –
Cc1cccc(C)c1-c1cc2nc(n1)NS(=O)(=O)c1cccc(c1)C(=O)N(Cc1ncc3cc(C(C)(C)C)n(C)c3n1)[C@H](CC(C)(C)C)CO2 [IV-38] | 1000 to 3000 | > 60 | +++ (+++ is >60%) | – | –
Cc1cccc(COC(C)C)c1-c1nc2nc(c1C)OC[C@@H](CC(C)(C)C)N(Cc1cnc3oc(C4CC4)cc3n1)C(=O)c1cccc(c1)S(=O)(=O)N2 [IV-39] | 1000 to 3000 | > 60 | +++ (+++ is >60%) | – | –
